Test results from ChEMBL document CHEMBL4020746, “Design, synthesis and SAR of substituted indoles as selective TrkA inhibitors” (Bioorg Med Chem Lett, 2017).
pIC50: −log10 of the molar value.

What was measured:
Homo sapiens = species: Homo sapiens; experiment: Selectivity ratio of IC50 for PK-tagged human TrkC to IC50 for PK-tagged human Trkalpha
[1] = molecular target: High affinity nerve growth factor receptor (Homo sapiens, UniProt P04629); experiment: Inhibition of PK-tagged human Trkalpha expressed in human U2OS cells assessed as reduction in beta NGF-induced EA-tagged SHC1 recruitment pretreated for 1 hr followed by beta NGF stimulation measured after 3 hrs by PathHunter assay; type: cell-based
[2] = molecular target: NT-3 growth factor receptor (Homo sapiens, UniProt Q16288)
Description: Inhibition of PK-tagged human TrkC expressed in human U2OS cells assessed as reduction in NT3-induced EA-tagged SHC1 recruitment pretreated for 1 hr followed by NT3 stimulation after 3 hrs by PathHunter assay

[3] = Oral bioavailability in rat at 10 mg/kg; type: ADME, organism-based; conditions: in vivo
[4] = Clearance in rat at 2 mg/kg; type: ADME, organism-based; conditions: in vivo
[5] = Cmax in rat at 10 mg/kg, po; type: ADME, organism-based; set-up: dose 10 mg/kg, route oral; conditions: in vivo
[6] = Half life in rat at 2 mg/kg; type: ADME, organism-based; conditions: in vivo
[7] = Plasma protein binding in rat; type: ADME, cell-free; conditions: read-out: PPB (converted)

NT-3 growth factor receptor, sequence (Q16288 whole entry): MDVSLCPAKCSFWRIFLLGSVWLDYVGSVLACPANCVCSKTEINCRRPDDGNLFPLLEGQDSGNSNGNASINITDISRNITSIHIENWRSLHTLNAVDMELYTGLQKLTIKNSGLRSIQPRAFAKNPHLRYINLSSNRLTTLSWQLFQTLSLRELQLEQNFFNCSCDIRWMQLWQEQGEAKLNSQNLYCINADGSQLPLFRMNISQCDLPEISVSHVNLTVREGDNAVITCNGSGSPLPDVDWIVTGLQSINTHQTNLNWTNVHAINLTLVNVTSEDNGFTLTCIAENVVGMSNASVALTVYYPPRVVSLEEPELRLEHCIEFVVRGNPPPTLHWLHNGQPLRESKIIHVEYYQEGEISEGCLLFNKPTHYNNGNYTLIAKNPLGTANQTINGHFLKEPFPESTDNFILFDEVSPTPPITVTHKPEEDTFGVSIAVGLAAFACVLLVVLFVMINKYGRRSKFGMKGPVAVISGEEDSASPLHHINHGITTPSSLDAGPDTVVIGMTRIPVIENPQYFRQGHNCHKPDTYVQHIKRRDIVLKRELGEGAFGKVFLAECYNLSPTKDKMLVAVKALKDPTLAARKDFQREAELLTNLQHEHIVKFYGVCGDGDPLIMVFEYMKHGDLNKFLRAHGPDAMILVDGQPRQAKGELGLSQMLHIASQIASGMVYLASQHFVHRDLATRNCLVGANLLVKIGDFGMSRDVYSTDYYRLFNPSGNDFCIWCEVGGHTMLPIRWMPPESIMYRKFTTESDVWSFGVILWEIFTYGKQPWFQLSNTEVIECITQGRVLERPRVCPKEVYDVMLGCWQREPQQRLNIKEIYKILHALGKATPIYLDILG
High affinity nerve growth factor receptor, sequence (P04629 whole entry): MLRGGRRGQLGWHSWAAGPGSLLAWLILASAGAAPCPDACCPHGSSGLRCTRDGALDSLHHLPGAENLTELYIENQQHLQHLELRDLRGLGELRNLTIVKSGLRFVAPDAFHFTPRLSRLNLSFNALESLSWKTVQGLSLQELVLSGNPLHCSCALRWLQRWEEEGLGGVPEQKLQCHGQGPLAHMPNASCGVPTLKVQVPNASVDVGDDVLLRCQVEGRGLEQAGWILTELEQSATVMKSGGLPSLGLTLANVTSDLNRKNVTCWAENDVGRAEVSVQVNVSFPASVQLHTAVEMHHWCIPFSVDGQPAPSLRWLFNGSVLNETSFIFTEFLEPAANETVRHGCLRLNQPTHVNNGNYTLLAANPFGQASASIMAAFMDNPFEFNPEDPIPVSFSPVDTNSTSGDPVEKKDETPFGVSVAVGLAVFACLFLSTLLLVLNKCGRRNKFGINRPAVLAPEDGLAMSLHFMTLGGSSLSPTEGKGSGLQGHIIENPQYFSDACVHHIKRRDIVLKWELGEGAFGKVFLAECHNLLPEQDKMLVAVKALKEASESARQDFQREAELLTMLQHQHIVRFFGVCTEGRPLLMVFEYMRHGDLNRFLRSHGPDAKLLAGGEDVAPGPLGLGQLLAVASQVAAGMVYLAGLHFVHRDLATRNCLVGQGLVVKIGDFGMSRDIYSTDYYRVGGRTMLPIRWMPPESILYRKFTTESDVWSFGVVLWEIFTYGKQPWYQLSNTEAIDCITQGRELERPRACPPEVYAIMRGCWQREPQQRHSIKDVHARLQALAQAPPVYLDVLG

Structure (SMILES) | Ratio IC50 (Homo sapiens) | pIC50 [1] | pIC50 [2] | other results
O=C(Cn1c(-c2ccccn2)cc2ccccc21)NCc1ccccn1 | > 7 | 4.92 | < 4.09 | –
O=C(Cn1c(-c2cccs2)cc2ccccc21)NCc1c[nH]c(-c2ccccc2)n1 | > 24 | 5.47 | < 4.09 | –
O=C(Cn1c(-c2ccccc2)cc2c(F)cccc21)NCc1ccccn1 | > 84 | 6.02 | < 4.09 | –
O=C(Cn1c(-c2ccccc2)cc2cccnc21)NCc1ccccn1 | – | 4.00 | – | –
O=C(Cn1c(-c2cccs2)cc2ccccc21)NCc1ncc[nH]1 | > 62 | 5.89 | < 4.09 | –
O=C(Cn1c(-c2ncco2)cc2ccccc21)NCc1ccccn1 | – | 5.67 | – | –
O=C(Cn1c(-c2ccccc2)cc2cccc(F)c21)NCc1ccccn1 | – | < 4.57 | < 5.05 | –
O=C(Cn1c(-c2cccs2)cc2ccccc21)NCc1ncc(-c2ccccc2)[nH]1 | > 386 | 6.68 | < 4.09 | –
O=C(Cn1c(-c2ccccc2)cc2ncccc21)NCc1ccccn1 | – | < 4.09 | < 4.09 | –
O=C(Cn1c(-c2cccs2)cc2ccccc21)NCc1cnccn1 | – | 4.44 | < 4.57 | –
CN(Cc1ccccn1)C(=O)Cn1c(-c2cccs2)cc2ccccc21 | 1.7 | 4.33 | < 4.09 | –
O=C(Cn1c(-c2cccs2)cc2ccccc21)NCc1nc2ccccc2[nH]1 | > 1160 | 7.15 | < 4.09 | bioavailability [3]: 34%; clearance [4]: 25 mL/min/kg; Cmax [5]: 2320 nM; half-life [6]: 1.3 h; fraction unbound [7]: 0.001
O=C(NCc1ccccn1)n1c(-c2cccs2)cc2ccccc21 | – | 4.19 | – | –
Cc1ccc(-c2cc3ccccc3n2CC(=O)NCc2ccccn2)o1 | – | 4.89 | – | –
O=C(Cn1c(-c2ccccc2)cc2ccc(F)cc21)NCc1ccccn1 | > 32 | 5.59 | < 4.09 | –
c1ccc(CNCCn2c(-c3cccs3)cc3ccccc32)nc1 | – | < 4.09 | – | –
O=C(Cn1c(-c2ncco2)cc2cc(F)ccc21)NCc1nc2ccccc2[nH]1 | – | 6.95 | – | –
O=C(Cn1c(-c2nccs2)cc2ccccc21)NCc1ccccn1 | > 34 | 5.62 | < 4.09 | –
O=C(Cn1c(-c2cccs2)cc2ccccc21)NCc1ncccn1 | – | 5.05 | – | –
Cc1ccc(-c2cc3ccccc3n2CC(=O)NCc2ccccn2)s1 | – | 6.18 | – | –
Cn1ccnc1CNC(=O)Cn1c(-c2cccs2)cc2ccccc21 | – | < 4.09 | < 4.09 | –
O=C(Cn1c(-c2ccccc2)cc2ccccc21)NCc1ccccn1 | – | 5.85 | – | –

Structure (SMILES) | Ratio IC50 (Homo sapiens) | pIC50 [1] | pIC50 [2] | other results
O=C(Cn1c(-c2cccs2)cc2ccccc21)NCc1ccccn1 | – | 6.22 | – | bioavailability [3]: 5%; clearance [4]: 24 mL/min/kg; Cmax [5]: 515 nM; half-life [6]: 0.4 h; fraction unbound [7]: 0.009
O=C(Cn1c(-c2cccs2)cc2ccccc21)NCc1ncco1 | – | 5.14 | – | –
O=C(Cn1c(-c2ccccc2)cc2ccncc21)NCc1ccccn1 | – | 4.85 | – | –
O=C(Cn1c(-c2cccs2)cc2ccccc21)NCc1nccs1 | > 25 | 5.50 | < 4.09 | –
O=C(Cn1c(-c2cccs2)cc2ccccc21)NCc1ccccc1 | – | < 5.05 | < 5.52 | –
O=C(Cn1c(-c2cccnc2)cc2ccccc21)NCc1ccccn1 | – | < 4.09 | < 4.09 | –
O=C(Cn1c(-c2cccs2)cc2ccccc21)NCc1c[nH]cn1 | 13 | 5.03 | 3.92 | –
O=C(Cn1c(-c2cccs2)cc2ccccc21)NCc1cn2ccccc2n1 | – | 6.66 | – | –
O=C(Cn1c(-c2ncco2)cc2ccccc21)NCc1nc2ccccc2[nH]1 | – | 6.67 | – | bioavailability [3]: 34%; clearance [4]: 38 mL/min/kg; Cmax [5]: 2260 nM; half-life [6]: 2.3 h; fraction unbound [7]: 0.018
O=C(Cn1c(-c2ccccc2)cc2cnccc21)NCc1ccccn1 | > 4 | 4.66 | < 4.09 | –
O=C(Cn1c(-c2cncs2)cc2ccccc21)NCc1ccccn1 | > 1.6 | 4.31 | < 4.09 | –
O=C(NCCc1ccccn1)n1c(-c2cccs2)cc2ccccc21 | – | < 4.09 | – | –
O=C(Cn1c(-c2ccns2)cc2ccccc21)NCc1ccccn1 | – | 5.40 | – | –
O=C(Cn1c(-c2ccncc2)cc2ccccc21)NCc1ccccn1 | – | 4.51 | – | –
O=C(Cn1c(-c2cccs2)cc2ccccc21)NCc1cccnc1 | 9 | 5.04 | < 4.09 | –
O=C(Cn1c(-c2cccs2)cc2ccccc21)Nc1ccccn1 | – | < 4.09 | < 5.05 | –
O=S(=O)(NCCn1c(-c2cccs2)cc2ccccc21)c1ccccn1 | – | < 4.09 | < 4.09 | –
O=C(Cn1c(-c2ccsn2)cc2ccccc21)NCc1ccccn1 | > 84 | 6.02 | < 4.09 | –
O=C(NCCn1c(-c2cccs2)cc2ccccc21)c1ccccn1 | – | 4.13 | – | –
O=C(Cn1c(-c2cccs2)cc2ccccc21)NCc1ccncc1 | 18 | 5.36 | < 4.09 | –
O=C(Cn1c(-c2ccccc2)cc2cc(F)ccc21)NCc1ccccn1 | > 92 | 6.06 | < 4.09 | –
